Data: patent publication US4820834A, “Benzodiazepine analogs” (priority 1987, dated 1989)
Read-outs that look alike come from different tables or passages of the source.

What was measured:
[1] = molecular target: T1, CCK receptor (brain, cerebral cortex) (Cavia porcellus, UniProt H0VZC5); assay: biochemical; type: binding, Male Hartley guinea pigs
T1 construct: Cerebral cortex was dissected and used as a receptor source; from tissue; host or cells: guinea pig cerebral cortex membranes (male Hartley)
T1 sequence (H0VZC5 1-426): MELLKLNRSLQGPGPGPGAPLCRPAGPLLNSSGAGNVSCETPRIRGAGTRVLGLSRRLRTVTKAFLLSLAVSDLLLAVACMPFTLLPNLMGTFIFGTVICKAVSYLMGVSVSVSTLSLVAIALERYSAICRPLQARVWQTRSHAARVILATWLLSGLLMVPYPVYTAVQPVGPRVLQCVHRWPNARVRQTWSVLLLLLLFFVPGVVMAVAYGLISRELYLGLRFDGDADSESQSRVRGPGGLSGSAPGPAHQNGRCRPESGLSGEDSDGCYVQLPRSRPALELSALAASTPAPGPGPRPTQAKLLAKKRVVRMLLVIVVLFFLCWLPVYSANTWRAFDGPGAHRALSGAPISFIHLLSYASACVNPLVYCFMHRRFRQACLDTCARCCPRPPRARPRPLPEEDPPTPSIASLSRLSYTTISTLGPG
Procedure, shortened: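 Guinea pig cerebral cortex homogenate as receptor source, with radiolabeled CCK-33 in HEPES buffer containing MgCl2, bacitracin, EGTA and 0.4% BSA. Incubation 2 h at 25°C; bound ligand pelleted by centrifugation and gamma-counted.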

[2] = molecular target: T2, Gastrin receptor (gastric glands) (Cavia porcellus, UniProt H0VZC5); assay: Gastrin Receptor Binding in Guinea Pig Gastric Glands; parameters: species or system guinea pig (male Hartley)
T2 construct: The washed guinea pig gastric glands prepared as above were resuspended; from tissue; host or cells: guinea pig gastric mucosal glands (male Hartley)
T2 sequence (H0VZC5 1-426): T1 sequence (H0VZC5 1-426)

[3] = molecular target: T3, CCK receptor (pancreas) (Rattus norvegicus, UniProt P30551); assay: CCK Receptor Binding (Pancreas): inhibition of ^125 I-CCK-33 binding; parameters: species or system Male Sprague-Dawley rats
T3 construct: The whole pancreas was dissected free of fat tissue and was homogenized; from tissue; host or cells: rat pancreas membranes (Sprague-Dawley)
T3 sequence (P30551 1-444): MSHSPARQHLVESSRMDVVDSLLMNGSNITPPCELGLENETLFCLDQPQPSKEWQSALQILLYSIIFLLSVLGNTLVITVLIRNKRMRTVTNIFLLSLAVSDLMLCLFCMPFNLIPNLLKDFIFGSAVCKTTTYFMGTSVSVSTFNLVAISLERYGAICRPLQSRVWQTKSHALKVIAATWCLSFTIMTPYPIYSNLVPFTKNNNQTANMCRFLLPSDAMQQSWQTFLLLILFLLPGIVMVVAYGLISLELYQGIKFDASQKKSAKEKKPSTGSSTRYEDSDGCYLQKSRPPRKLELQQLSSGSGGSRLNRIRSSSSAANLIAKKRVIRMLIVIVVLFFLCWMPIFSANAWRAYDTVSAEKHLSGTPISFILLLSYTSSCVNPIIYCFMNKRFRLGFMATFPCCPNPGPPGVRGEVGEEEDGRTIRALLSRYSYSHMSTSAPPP
Procedure, shortened: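 Rat (male Sprague-Dawley) pancreatic membranes in 50 mM Tris HCl pH 7.7 with DTT, bacitracin, PMSF and o-phenanthroline; ^125I-Bolton Hunter-labelled CCK-33 as radioligand. Incubation 30 min at 37° C, separation by centrifugation, pellet gamma-counted; Scatchard analysis by diluting ^125I-CCK-33 with increasing CCK-33.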

[4] = IC50 ^125 I-CCK Brain, guinea pig cerebral cortex, ^125 I-CCK-33, 25° C., 2 hours
[5] = IC50 ^125 I-Gastrin Gastric Glands, 25° C., 30 minutes
[6] = IC50 ^125 I-CCK Pancreas, rat pancreas membranes, ^125 I-CCK-33, 37° C., 30 minutes
[7] = ^125 I-gastrin, 25° C., 30 minutes, read-out: IC50 ^125 I-Gastrin Gastric Glands
[8] = rat pancreas membranes, ^125 I-CCK-33, 37° C., 30 minutes; read-out: IC50 ^125 I-CCK Pancreas
[9] = guinea pig cerebral cortex, ^125 I-CCK-33, 25° C., 2 hours, read-out: IC50 ^125 I-CCK Brain
[10] = read-out: IC50 ^125 I-CCK Brain, guinea pig cerebral cortex, ^125 I-CCK-33, 25° C., 2 hours
[11] = read-out: IC50 ^125 I-CCK Pancreas; rat pancreas membranes, ^125 I-CCK-33, 37° C., 30 minutes
[12] = read-out: IC50 ^125 I-Gastrin Gastric Glands, 25° C., 30 minutes

Row | Structure (SMILES) | IC50 [1, 4] [µM] | IC50 [2, 5] [µM] | IC50 [3, 6] [µM] | IC50 [2, 7] [µM] | IC50 [3, 8] [µM] | also measured
1 | O=C(OC1N=C(c2ccccc2F)c2ccccc2NC1=O)c1ccc(Cl)cc1 (racemic) [Example 179, 1,3-Dihydro-5-(2-fluorophenyl)-3(RS)-(4-chlorobenzoyl)oxy-2H-1,4-benzodiazepin-2-one] | 3.6 | 18 | 4.4 |  |  | 
2 | O=C(NC1N=C(c2ccccc2F)c2ccccc2NC1=S)c1ccc(Cl)cc1 (racemic) [Example 180, 1,3-Dihydro-5-(2-fluorophenyl)-3-(RS)-(4-chlorophenyl)carbonylamino-2H-1,4-benzodiazepin-2-thione] | > 100 | 11 | 0.016 |  |  | 
3 | O=C(NC1N=C(c2ccccc2F)c2ccccc2NC1=S)c1cc2ccccc2[nH]1 (racemic) [Example 181, 1,3-Dihydro-5-(2-fluorophenyl)-3-(RS)-(2-indole) carbonylamino-2H-1,4-benzodiazepin-2-thione] | 9.3 | 4.4 | 0.002 |  |  | 
4 | CC(C)(C)OC(=O)N[C@H](Cc1c[nH]c2ccccc12)C(=O)Nc1ccccc1C(=O)c1ccccc1F [Example 1, 2-N-(Nα-Boc-D-tryptophanyl)amino-2'-fluorobenzophenone] |  |  |  | 167 | 67 | IC50 ([1]; read-out: IC50 ^125 I-CCK Brain): > 100 µM
5 | CSC1=N[C@@H](Cc2cn(C)c3ccccc23)C(=O)N(C)c2ccccc21 [Example 7, 1,3-Dihydro-3(S)-[3'-(1'-methylindolyl)methyl]-1-methyl-5-methylthio-2H-1,4-benzodiazepin-2-one] |  |  |  | > 100 | > 100 | IC50 [1, 9]: 100 µM
6 | CSC1=N[C@@H](Cc2c[nH]c3ccccc23)C(=O)N(C)c2ccccc21 [Example 8, 1,3-Dihydro-3(S)-(3'-indolyl)methyl-1-methyl-5-methylthio-2H-1,4-benzodiazepin-2-one] |  |  |  | 227 | 100 | IC50 [1, 9]: 100 µM
7 | O=C1Nc2ccccc2C(c2ccccc2F)=N[C@@H]1CC1CNc2ccccc21 (stereo partly drawn) [Example 9] | 48 |  | 10.7 | 78 |  | 
8 | O=C1Nc2ccccc2C(c2ccccc2F)=N[C@@H]1CC1CNc2ccccc21 (stereo partly drawn) [Example 10] |  |  |  | 47 |  | IC50 [1, 10]: > 100 µM; IC50 [3, 11]: 16.7 µM
9 | CC(C)C[C@H]1N=C(c2ccccc2)c2cc(Cl)ccc2NC1=O [Example 14, 7-Chloro-1,3-dihydro-3(R)-(2-methyl-1-propyl)-5-phenyl-2H-1,4-benzodiazepin-2-one] | 60 | 12 | 42 |  |  | 
10 | O=C1Nc2ccc(Cl)cc2C(c2ccccc2)=N[C@@H]1COCc1ccccc1 [Example 15, 3(R)-Benzyloxymethyl-7-chloro-1,3-dihydro-5-phenyl-2H-1,4-benzodiazepin-2-one] | 80 | 38 | 60 |  |  | 
11 | O=C(NN=C1Nc2ccccc2C(c2ccccc2F)=N[C@@H]1Cc1c[nH]c2ccccc12)c1ccsc1 [Example 35, 1,3-Dihydro-5-(2-fluorophenyl)-3(R)-(3'-indolyl)methyl-2H-1,4-benzodiazepin-2-[N'-(3-thienoyl)]hydrazide] | 15 | > 100 | 10 |  |  | 
12 | CCN1C(=O)[C@@H](Cc2c[nH]c3ccccc23)N=C(c2ccccc2F)c2ccccc21 [Example 36, 1,3-Dihydro-1-ethyl-5-(2-fluorophenyl)-3(R)-(3'-indolyl)methyl-2H-1,4-benzodiazepin-2-one] | 30 | > 100 | 0.3 |  |  | 
13 | CC(C)CCN1C(=O)[C@@H](Cc2c[nH]c3ccccc23)N=C(c2ccccc2F)c2ccccc21 [Example 39, 1,3-Dihydro-5-(2-fluorophenyl)-3(R)-(3'-indolyl) methyl-1-(3-methylbutyl)-2H-1,4-benzodiazepine-2-one] | 30 | 23 | 100 |  |  | 
14 | O=C(O)CN1C(=O)[C@@H](Cc2c[nH]c3ccccc23)N=C(c2ccccc2F)c2ccccc21 [Example 43] |  |  |  |  |  | IC50 [1, 10]: 23 µM; IC50 [2, 12]: 5 µM; IC50 [3, 11]: 0.3 µM
15 | CN1C(=O)[C@@H](Cc2cn(C(=O)c3ccc(Cl)cc3)c3ccccc23)N=C(c2ccccc2F)c2ccccc21 [Example 45, 1,3-Dihydro-5-(2-fluorophenyl)-3(R)-[3'-(1'-p-chlorobenzyloylindolyl)methyl]-1-methyl-2H-1,4-benzodiazepin-2-one] |  |  |  |  |  | IC50 [1, 10]: > 100 µM; IC50 [2, 12]: > 1000 µM; IC50 [3, 11]: 10.6 µM
16 | O=C1Nc2ccc(Cl)cc2C(c2ccccc2)=N[C@@H]1Cc1cn(-c2ccc([N+](=O)[O-])cc2[N+](=O)[O-])cn1 [Example 55, 7-Chloro-1,3-dihydro-3(R)-[(3'-(2,4-dinitrophenyl)imidazol-5'-yl)-methyl]-5-phenyl-2H-1,4-benzodiazepin-2-one] |  |  | 7.6 | 76 |  | IC50 [1, 9]: 38.6 µM
17 | NCCCC[C@H]1N=C(c2ccccc2F)c2ccccc2NC1=O [Example 65, 1,3-Dihydro-5-(2'-fluorophenyl)-3(R)-(4-amino)butyl-2H-1,4-benzodiazepin-2-one] | > 100 | > 1000 | > 100 |  |  | 
18 | CN1C(=O)[C@@H](N)N=C(c2ccccc2)c2ccccc21 [Example 85a, 3(S)-(-)-3-Amino-1,3-dihydro-1-methyl-5-phenyl-2H-1,4-benzodiazepin-2-one] | > 100 | > 100 |  |  | 100 | 
19 | CN1C(=O)[C@@H](NC(=O)c2cc3ccccc3[nH]2)N=C(c2ccccc2F)c2ccccc21 [Example 88, 3(S)-(+)-1,3-Dihydro-5-(2-fluorophenyl)-3-(2-indole-carbonylamino)-1-methyl-2H-1,4-benzodiazepin-2-one] | 0.3 |  |  | 0.027 | 0.0006 | 
20 | CN1C(=O)[C@H](NC(=O)c2cc3ccccc3[nH]2)N=C(c2ccccc2F)c2ccccc21 [Example 89, 3(R)-(-)-1,3-Dihydro-5-(2-fluorophenyl)-3-(2-indole-carbonylamino)-1-methyl-2H-1,4-benzodiazepin-2-one] | 1.1 |  |  | 0.24 | 0.019 | 
21 | CN1C(=O)[C@H](NC(=O)c2ccc(Cl)cc2)N=C(c2ccccc2F)c2ccccc21 [Example 90, 3(R)-(-)-1,3-Dihydro-3-(4-chlorobenzoylamino)-5-(2-fluorophenyl)-1-methyl-2H-1,4-benzodiazepin-2-one] | 11 |  |  | 5.2 | 0.049 | 
22 | CN1C(=O)[C@@H](NC(=O)c2ccc(Cl)cc2)N=C(c2ccccc2F)c2ccccc21 [Example 91, 3(S)-(+)-1,3-Dihydro-3-(4-chlorobenzoylamino)-5-(2-fluorophenyl)-1-methyl-2H-1,4-benzodiazepin-2-one] | 2.9 |  |  | 0.8 | 0.0025 | 
23 | CN1C(=O)[C@@H](NC(=O)c2ccc(Br)cc2)N=C(c2ccccc2)c2ccccc21 [Example 92, 3(S)-(-)-1,3-Dihydro-3-(4-bromobenzoylamino)-1-methyl-5-phenyl-2H-1,4-benzodiazepin-2-one] | 1.6 |  | 0.0043 | 0.62 |  | 
24 | CN1C(=O)[C@H](NC(=O)c2ccc(Br)cc2)N=C(c2ccccc2)c2ccccc21 [Example 93, 3(R)-(+)-1,3-Dihydro-3-(4-bromobenzoylamino)-1-methyl-5-phenyl-2H-1,4-benzodiazepin-2-one] | 2.9 |  |  | 2 | 0.7 | 
